Results: publication PMC6424904, “The Utility of Efavirenz-based Prophylaxis Against HIV Infection. A Systems Pharmacological Analysis” (Frontiers in Pharmacology, 2019)
Where two headings read alike, the source gives them in different places.

Key:
[1] = no reference given; cited from earlier work
[2] = tested on: plasma proteins (human serum albumin and α-1-acid glycoprotein); conditions: cited from earlier work; for unbound fraction in human plasma (fu): ref Almond et al., 2005, Fayet et al., 2008, Burhenne et al., 2010, Avery et al., 2011, 2013a
HIV K103N mutant = tested on: HIV K103N mutant; design: method as in Sampah et al., 2011; conditions: ref Sampah et al., 2011; cited from earlier work
[3] = design: method as in Mukonzo et al., 2009; conditions: healthy men, ref Mukonzo et al., 2009, cited from earlier work
[4] = cited from earlier work; for typical population clearance value: 70kg; for typical population clearance value / relative change in apparent oral clearance vs reference genotype: ref Dickinson et al. (2015)
[5] = in vivo; cited from earlier work
[6] = cited from earlier work
HIV Y181C mutant = tested on: HIV Y181C mutant; design: method as in Sampah et al., 2011; conditions: ref Sampah et al., 2011; cited from earlier work
[7] = in vivo; cited from earlier work; remark: listed apart in the source
HIV G190S mutant = tested on: HIV G190S mutant; design: method as in Sampah et al., 2011; conditions: ref Sampah et al., 2011; cited from earlier work
wild-type HIV = tested on: wild-type HIV; design: method as in Shen et al., 2008; conditions: ref Shen et al., 2008, cited from earlier work
[8] = human, in vivo
From the text: In our work, we modeled metabolic autoinduction similarly to the model proposed by Zhu et al. ([2009]). We defined the term α as the ratio of the mean clearance on day 1 to the mean clearance at steady state (after autoinduction). […] For each virtual patient generated from the population pharmacokinetic model, the individual clearance at steady state was available and the clearance at day 1 was computed using CLi,t0 = α·CLi, SS. Zhu et al. ([2009]) proposed a model for time-dependent autoinduction that we used herein
(4) CLi(t)=CLi,t0+(CLi,SS-CLi,t0)·t-t0/(t-t0)+T50
where CLi(t) is the individual clearance rate at the time t and t0 is the time of the first EFV dose. CLi(0) and CLi, SS represent the clearance rates at day 1 and at steady state.

[9] = genotype GG/TC or CC/CA or AA/CC
[10] = genotype GG/TC or CC/CA or AA/CT
[11] = genotype GG/TC or CC/CC/CT or TT
[12] = genotype GT/TC or CC/CA or AA/CC
[13] = genotype GT/TC or CC/CC/CT or TT

O=C1Nc2ccc(Cl)cc2[C@@](C#CC2CC2)(C(F)(F)F)O1 [efavirenz]
LogP [1]: ≈ 4 | unbound fraction in human plasma (fu) [2]: ≤ 1% | unbound fraction in human plasma (fu) ([2]; listed as EFV): < 1% | fu,plasma used for IC50 correction ([2]; value used to obtain IC50plasma): 0.2% | hill coefficient m as multiple of m(wt) (HIV K103N mutant): 0.83·m(wt) | half life ([3]; slow metabolisers): 54.7 h | half life ([3]; wild type): 37.3 h | typical population clearance value ([4]; Missing genotype): 8.7 L/h | typical population clearance value [4, 9]: 9.0 L/h | typical population clearance value [4, 10]: 11.4 L/h | typical population clearance value ([4]; genotype GG/TC or CC/CC/CC): 8.7 L/h | typical population clearance value [4, 11]: 3.5 L/h | typical population clearance value [4, 12]: 2.2 L/h | typical population clearance value ([4]; genotype GT/TC or CC/CC/CC): 5.0 L/h | typical population clearance value [4, 13]: 4.6 L/h | typical population clearance value ([4]; genotype GT/TT/CA or AA/CC): 8.2 L/h | typical population clearance value ([4]; genotype GT/TT/CA or AA/CT): 8.4 L/h | typical population clearance value ([4]; genotype GT/TT/CC/CC): 8.9 L/h | typical population clearance value ([4]; genotype GT/TT/CC/CT or TT): 8.1 L/h | typical population clearance value ([4]; genotype TT/TT/CA or AA/CC): 5.2 L/h | typical population clearance value ([4]; genotype TT/TT/CA or AA/CT): 8.9 L/h | typical population clearance value ([4]; genotype TT/TT/CC/CC): 4.0 L/h | typical population clearance value ([4]; genotype TT/TT/CC/CT or TT): 4.1 L/h | relative change in apparent oral clearance vs reference genotype ([4]; Missing genotype): 0.73 | relative change in apparent oral clearance vs reference genotype [4, 9]: 0.75 | relative change in apparent oral clearance vs reference genotype [4, 10]: 0.96 | relative change in apparent oral clearance vs reference genotype ([4]; genotype GG/TC or CC/CC/CC): 0.73 | relative change in apparent oral clearance vs reference genotype [4, 11]: 0.30 | relative change in apparent oral clearance vs reference genotype [4, 12]: 0.18 | relative change in apparent oral clearance vs reference genotype ([4]; genotype GT/TC or CC/CC/CC): 0.42 | relative change in apparent oral clearance vs reference genotype [4, 13]: 0.39 | relative change in apparent oral clearance vs reference genotype ([4]; genotype GT/TT/CA or AA/CC): 0.69 | relative change in apparent oral clearance vs reference genotype ([4]; genotype GT/TT/CA or AA/CT): 0.71 | relative change in apparent oral clearance vs reference genotype ([4]; genotype GT/TT/CC/CC): 0.75 | relative change in apparent oral clearance vs reference genotype ([4]; genotype GT/TT/CC/CT or TT): 0.68 | relative change in apparent oral clearance vs reference genotype ([4]; genotype TT/TT/CA or AA/CC): 0.44 | relative change in apparent oral clearance vs reference genotype ([4]; genotype TT/TT/CA or AA/CT): 0.75 | relative change in apparent oral clearance vs reference genotype ([4]; genotype TT/TT/CC/CC): 0.33 | relative change in apparent oral clearance vs reference genotype ([4]; genotype TT/TT/CC/CT or TT): 0.34 | absorption rate constant ka ([4]; in vivo): 0.6 h⁻¹ | interindividual variability CVIIV(CLss/Fbio) ([4]; in vivo): 36.6% | interoccasion variability CVIOV(CLss/Fbio) ([4]; in vivo): 21.0% | apparent volume of distribution V/Fbio ([4]; population mean, 70 kg individual, ref Dickinson et al., 2015): 282 L | apparent oral clearance CL/Fbio (CLss/Fbio) ([4]; population value, 70 kg individual, reference (wild-type) CYP genotype, after autoinduction, ref Dickinson et al., 2015): 11.9 L/h | cervical fluid-to-plasma ratio of total concentrations [5]: 0.4% | T50, time where the clearance rate reaches half of its steady-state value ([6]; in vivo): 245 h | average clearance on the first day ([6]; ref Zhu et al., 2009): 5.76 L/h | hill coefficient m as multiple of m(wt) (HIV Y181C mutant): 0.9·m(wt) | semen-to-plasma ratio of total EFV concentrations [7]: 3.4–5% | hill coefficient m as multiple of m(wt) (HIV G190S mutant): 0.6·m(wt) | IC50 (wild-type HIV; corrected for protein binding): 5.4 nM | hill coefficient m (± sd) (wild-type HIV): 1.69 (±0.08) | α, ratio of mean clearance on day 1 to mean clearance at steady state [8]: 0.58
